Here are results for 1 substance from US12036022B2, “Transcutaneous organ function measurement” (MediBeacon Inc., priority 2008, dated 2024).

This data set can be described thus: Half-life (renal excretion) after intravenous administration to rats. To be noted: rat, in vivo. The procedure: The chromatographically separated fractions F5 and F10 were derivatized with fluorescein isothiocyanate (FITC) to form FITC-F5 and FITC-F10. FITC-F10 was administered to rats intravenously. The interstitial fluorescence of the FITC measured at an excitation wavelength of 485-520 nm was determined. The fluorescence in the serum was measured as a control.

Turning to sinistrin, the half-life stood at 25.02 ± 1.67 min.
